The values that follow come from article PMC4747952, “Development of TASP0410457 (TASP457), a novel dihydroquinolinone derivative as a PET radioligand for central histamine H3 receptors” (EJNMMI Research, 2016).

In series [1] the target is T1, Sigma 1 receptor (Homo sapiens, UniProt Q99720).
T1 construct: The membrane preparations were made from Jurkat cell lines; endogenous in cells; host or cells: Jurkat
The experiment in a line: Sigma 1 receptor binding, [3H]pentazocine. Particulars: Jurkat cell membranes; 4 nM [3H]pentazocine; read-out: Off-target binding Sigma 1, IC50. The method, then: H) 6.86 [d, J = 8.67 Hz, 2 H]; MS [ESI/APCI Dual) [Positive) m/z; 381(M+H)+ ) .
Off-target binding of compounds
The membrane preparations were made from Jurkat cell lines, and were incubated in sigma 1 binding buffer (0.1% bovine serum albumin in 50 mM Tris, pH7.4) containing 4 nM [3H]pentazocine (PerkinElmer), and serial concentrations of the compound at 25°C for 2.5 h. The reaction was terminated by rapid filtration through a 96-well GF/C filter plate presoaked in 0.5% polyethyleneimine.
The filters were washed with ice-cold 50 mM Tris (pH7.4) three times, dried, and filled with Microscint-o. The radioactivity retained on the filter was counted using a TopCount NXT. Nonspecific binding was determined as the amount of radioactivity under the above-mentioned conditions in the presence of […] of haloperidol. The IC50 values were determined by nonlinear curve-fitting of the concentration-response data for each compound using Origin version 6.1087 (OriginLab Corporation, […]
Adrenergic 2c receptor binding
Human 2c receptor-expressing membrane preparations were purchased from PerkinElmer. The

The test system of series [2] is H3Rs. The experiment in a line: PET in anesthetized rhesus monkeys with arterial blood sampling. The format is in vivo, rhesus monkey. Particulars: for V T, Logan graphical analysis, Scan duration 60 min / V T, Logan graphical analysis, Scan duration 70 min / V T, Logan graphical analysis, Scan duration 80 min / V T, Logan graphical analysis, Scan duration 90 min / V T, One-tissue compartment model, Scan duration 90 min: Mean ± S.D., n = 3. The method, then: For a detailed pharmacokinetic PET study using [^11C]TASP0410457 with arterial blood sampling, three male rhesus monkeys weighing 5–7 kg were scanned with the SHR-7700 PET camera. The monkeys were initially anesthetized with an intramuscular injection of ketamine (10 mg/kg), intubated, and subsequently kept anesthetized with 1–2 % isoflurane. Electrocardiogram and blood oxygen saturation levels were monitored, and body temperature was maintained by a heating pad throughout the experiment. Arterial blood (1–2.5 mL) was collected from the saphenous artery at 10, 20, 30, 40, 50, 60, and 90 s and at 2, 3, 4, 5, 10, 15, 30, 60, and 90 min after the intravenous injection of [^11C]TASP0410457 (injected radioactivity, 159 ± 30 MBq; mass dose, 1.2 ± 0.3 μg; mean ± S.D., n = 3).
The arterial blood was centrifuged at 20,000×g for 3 min at 4 °C to separate the plasma. Radioactivity in total blood and plasma was determined using a 1480 WIZARD gamma counter (PerkinElmer), and was decay-corrected to the injection time. Arterial plasma collected at 1, 5, 15, 30, 60, and 90 min was used to analyze radioactive metabolites of [^11C]TASP0410457. Two hundred microliters of plasma was mixed with 200 μL of ice-cold acetonitrile, and the mixtures were centrifuged at 20,000×g for 3 min at 4 °C. Fifty to […] of the resultant supernatants were separated using HPLC (JASCO, Tokyo, Japan) on an Atlantis T3 column (4.6 × 50 mm, Waters, Milford, MA) with a mobile phase consisting of 10 mM of ammonium acetate/acetonitrile (68:32) at a flow rate of 1 mL/min. The fraction of unmetabolized [^11C]TASP0410457 was determined by measuring the areas of the HPLC peaks corresponding to [^11C]TASP0410457 and its radiometabolites.
Emission scan images were reconstructed using a 4.0-mm Colsher filter. ROIs were placed on the anterior cingulate cortex, striatum, thalamus, hippocampus, cerebellum, frontal cortex, temporal cortex, occipital cortex, and pons-medulla using PMOD software, with reference to an MRI template as described previously. Tissue TACs were generated as in the rat PET image analysis.
For PET study in anesthetized monkeys, metabolite-corrected plasma TACs were used as arterial input functions. The regional total volume of distribution (VT) was estimated by Logan’s graphical plot and one-tissue compartment model using PMOD software.

Where [3] appears, read: Anterior cingulate cortex, monkey brain.

Where only a bound is given, the exact number is not on record here.

T1 sequence (Q99720 whole entry): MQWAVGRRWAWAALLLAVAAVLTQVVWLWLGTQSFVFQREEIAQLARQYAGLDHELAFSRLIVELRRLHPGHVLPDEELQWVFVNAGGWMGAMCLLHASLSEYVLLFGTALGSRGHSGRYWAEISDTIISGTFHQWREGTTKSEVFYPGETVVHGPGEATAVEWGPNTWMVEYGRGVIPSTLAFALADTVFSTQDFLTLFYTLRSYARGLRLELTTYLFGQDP

Consider `COc1ccc(N2C(=O)CCc3cc(OCCCN4CCC[C@H]4C)ccc32)cc1` [TASP0390136, 1-(4-methoxyphenyl)-6-{3-[(2R)-2-methylpyrrolidin-1-yl]propoxy}-3,4-dihydroquinolin-2(1H)-one], for which the IC50 in series [1] was 167 nM.
With `COc1ccc(N2C(=O)CCc3cc(OC4CCN(C5CCC5)CC4)ccc32)cn1` [TASP0410457, 6-[(1-Cyclobutylpiperidin-4-yl)oxy]-1-(6-methoxypyridin-3-yl)-3,4-dihydroquinolin-2(1H)-one], in series [1], the IC50 was 379 nM.
The same measure, in the same setting: next, `COc1ccc(N2C(=O)CCc3cc(OC4CCN(C5CCC5)CC4)ccc32)cc1` [TASP0434988, 6-[(1-cyclobutylpiperidin-4-yl)oxy]-1-(4-methoxyphenyl)-3,4-dihydroquinolin-2(1H)-one]: 257 nM.
As to `[11CH3]Oc1ccc(N2C(=O)CCc3cc(OC4CCN(C5CCC5)CC4)ccc32)cn1` [[^11C]TASP0410457], the “V T, Logan graphical analysis, Scan duration 60 min” value worked out at 18.4 ± 2.7 mL/cm^3 in series [2] (setting [3]); 12.1 ± 1.2 mL/cm^3 in series [2] (Cerebellum, monkey brain); 12.3 ± 1.6 mL/cm^3 in series [2] (Frontal cortex, monkey brain); 13.0 ± 1.0 mL/cm^3 in series [2] (Hippocampus, monkey brain); 11.7 ± 1.6 mL/cm^3 in series [2] (Occipital cortex, monkey brain); 8.5 ± 0.6 mL/cm^3 in series [2] (Pons-medulla, monkey brain). Moreover, the “V T, Logan graphical analysis, Scan duration 60 min” value in series [2] (Striatum, monkey brain) came out at 21.2 ± 3.0 mL/cm^3; in series [2] (Temporal cortex, monkey brain), 12.3 ± 1.6 mL/cm^3; in series [2] (Thalamus, monkey brain), 15.1 ± 1.7 mL/cm^3. For the same compound, the “V T, Logan graphical analysis, Scan duration 70 min” value in series [2] (setting [3]) stood at 18.6 ± 2.8 mL/cm^3; in series [2] (Cerebellum, monkey brain) it was 12.4 ± 1.3 mL/cm^3; in series [2] (Frontal cortex, monkey brain), 12.5 ± 1.7 mL/cm^3; in series [2] (Hippocampus, monkey brain) it was 13.2 ± 1.0 mL/cm^3; in series [2] (Occipital cortex, monkey brain), 11.8 ± 1.6 mL/cm^3; in series [2] (Pons-medulla, monkey brain), 8.6 ± 0.7 mL/cm^3. In addition, the “V T, Logan graphical analysis, Scan duration 70 min” value is listed as 21.5 ± 3.0 mL/cm^3 in series [2] (Striatum, monkey brain); 12.4 ± 1.7 mL/cm^3 in series [2] (Temporal cortex, monkey brain); 15.4 ± 1.9 mL/cm^3 in series [2] (Thalamus, monkey brain). For the same compound, the “V T, Logan graphical analysis, Scan duration 80 min” value is given as 19.1 ± 3.2 mL/cm^3 in series [2] (setting [3]); 12.7 ± 1.5 mL/cm^3 in series [2] (Cerebellum, monkey brain); 12.8 ± 1.8 mL/cm^3 in series [2] (Frontal cortex, monkey brain); 13.6 ± 1.2 mL/cm^3 in series [2] (Hippocampus, monkey brain); 12.0 ± 1.8 mL/cm^3 in series [2] (Occipital cortex, monkey brain); 8.8 ± 0.7 mL/cm^3 in series [2] (Pons-medulla, monkey brain). Moreover, the “V T, Logan graphical analysis, Scan duration 80 min” value in series [2] (Striatum, monkey brain) is 21.9 ± 3.3 mL/cm^3; in series [2] (Temporal cortex, monkey brain), 12.5 ± 1.8 mL/cm^3; in series [2] (Thalamus, monkey brain), 15.6 ± 1.9 mL/cm^3. Besides, the “V T, Logan graphical analysis, Scan duration 90 min” value in series [2] (setting [3]) was found to be 19.5 ± 3.4 mL/cm^3; in series [2] (Cerebellum, monkey brain), 13.0 ± 1.7 mL/cm^3; in series [2] (Frontal cortex, monkey brain), 13.0 ± 2.0 mL/cm^3; in series [2] (Hippocampus, monkey brain) it was 13.9 ± 1.4 mL/cm^3; in series [2] (Occipital cortex, monkey brain), 12.1 ± 1.9 mL/cm^3; in series [2] (Pons-medulla, monkey brain), 9.1 ± 0.9 mL/cm^3. The “V T, Logan graphical analysis, Scan duration 90 min” value in series [2] (Striatum, monkey brain) is 22.6 ± 3.8 mL/cm^3; in series [2] (Temporal cortex, monkey brain) it was 12.9 ± 2.1 mL/cm^3; in series [2] (Thalamus, monkey brain) it was 16.0 ± 2.1 mL/cm^3. Moreover, the “V T, One-tissue compartment model, Scan duration 90 min” value is recorded as 20.3 ± 3.3 mL/cm^3 in series [2] (setting [3]); 12.8 ± 1.7 mL/cm^3 in series [2] (Cerebellum, monkey brain); 13.4 ± 1.8 mL/cm^3 in series [2] (Frontal cortex, monkey brain); 13.9 ± 1.3 mL/cm^3 in series [2] (Hippocampus, monkey brain); 12.7 ± 2.0 mL/cm^3 in series [2] (Occipital cortex, monkey brain); 8.8 ± 0.9 mL/cm^3 in series [2] (Pons-medulla, monkey brain). The “V T, One-tissue compartment model, Scan duration 90 min” value is recorded as 23.2 ± 3.6 mL/cm^3 in series [2] (Striatum, monkey brain); 13.3 ± 2.1 mL/cm^3 in series [2] (Temporal cortex, monkey brain); 16.1 ± 1.8 mL/cm^3 in series [2] (Thalamus, monkey brain). Besides, in series [2] (anesthetized monkeys), the “time of peak radioligand retention in the striatum” value is on record as “around 30 min”. For the same compound, in series [2] (anesthetized monkeys, arterial plasma), the “time of plasma radioactivity peak” value was “approximately 1 min”. In series [2] (anesthetized monkeys, mean ± S.D.), the “peak SUV in the striatum” value turned out to be 5.0 ± 0.8. Further, in series [2] (monkey), the “striatal VT” value is reported as “exceeded 20 mL/cm^3”. Besides, in series [2] (monkey brain, Logan's graphical analysis, relative to values for 90 min), the “change of VT values when scan endpoint changed between 90 and 60 min” value was ≤ 7%. The “fraction of unmetabolized radioligand of total plasma radioactivity” value in series [2] (monkey plasma at 90 min) is reported as 34%.
